PubChem BioAssay AID330 (DTP/NCI, 2004)
Values joined by “and” are separate entries in the source; they are usually repeats but may differ in a detail not shown here. Equal entries are not always repeated. Inconclusive results and toxic doses are left out.

Tested on: P388 leukemia ip, CD2F1 mice, survival T/C
Experiment: NCI In Vivo Anticancer Drug Screen. Data for tumor model P388 Leukemia (intraperitoneal) in CD2F1 (CDF1) mice
Details: endpoint: median survival time, higher = longer survival
Summary of the method: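 Mice carrying the transplanted tumor received test compound or vehicle. Survival was recorded in each group, and the value is the treated-group measurement divided by that of the vehicle-treated control group.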

In the case of O=NN(CCCl)C(=O)NCCCl, the T/C (dose: 1.0 mg/kg/injection, schedule: Q01DX001 (ip), vehicle: Klucel (hydroxypropylcellulose) (HPC)) is reported as 122 % of control, the T/C (dose: 1.0 mg/kg/injection, schedule: Q01DX001 (ip), vehicle: saline with Tween-80) is reported as 115 % of control and the T/C (dose: 1.0 mg/kg/injection, schedule: Q01DX001 (ip), vehicle: suspension in saline) is reported as 107 % of control. For the same compound, the T/C (dose: 1.0 mg/kg/injection, schedule: Q01DX005 (ip), vehicle: saline + alcohol) was 112 % of control, the T/C (dose: 2.0 mg/kg/injection, schedule: Q01DX001 (ip), vehicle: Klucel (hydroxypropylcellulose) (HPC)) was 112 % of control and the T/C (dose: 2.0 mg/kg/injection, schedule: Q01DX001 (ip), vehicle: saline with Tween-80) was 107 % of control. For the same compound, the T/C (dose: 2.0 mg/kg/injection, schedule: Q01DX001 (ip), vehicle: suspension in saline) was 117 % of control, the T/C (dose: 2.0 mg/kg/injection, schedule: Q01DX009 (ip), vehicle: other) was 163 % of control and 175 % of control and the T/C (dose: 2.0 mg/kg/injection, schedule: Q01DX009 (ip), vehicle: saline with Tween-80) was 173 % of control. The T/C (dose: 2.5 mg/kg/injection, schedule: Q04DX003 (iv), vehicle: saline + alcohol) was 152 % of control, the T/C (dose: 3.24 mg/kg/injection, schedule: Q04DX003 (ip), vehicle: saline + alcohol) was 208 % of control and the T/C (dose: 3.3 mg/kg/injection, schedule: Q01DX005 (ip), vehicle: Klucel (hydroxypropylcellulose) (HPC)) was 267 % of control. The T/C (dose: 3.3 mg/kg/injection, schedule: Q01DX005 (ip), vehicle: saline + alcohol) was 250 % of control and 265 % of control, the T/C (dose: 3.3 mg/kg/injection, schedule: Q01DX009 (ip), vehicle: saline + alcohol) was 183 % of control and the T/C (dose: 3.75 mg/kg/injection, schedule: Q04DX003 (ip), vehicle: saline) was 176 % of control. For the same compound, the T/C (dose: 3.89 mg/kg/injection, schedule: Q04DX003 (ip), vehicle: saline + alcohol) was 178 % of control, the T/C (dose: 4.0 mg/kg/injection, schedule: Q01DX001 (ip), vehicle: saline + alcohol) was 123 % of control and the T/C (dose: 4.0 mg/kg/injection, schedule: Q01DX005 (ip), vehicle: saline + alcohol) was 170 % of control. For the same compound, the T/C (dose: 4.0 mg/kg/injection, schedule: Q01DX009 (ip), vehicle: other) was 215 % of control and 287 % of control, the T/C (dose: 4.0 mg/kg/injection, schedule: Q01DX009 (ip), vehicle: saline with Tween-80) was 262 % of control and the T/C (dose: 4.4 mg/kg/injection, schedule: Q01DX005 (ip), vehicle: saline + alcohol) was 222 % of control. The T/C (dose: 5.0 mg/kg/injection, schedule: Q04DX003 (ip), vehicle: saline + alcohol) was 206 % of control, the T/C (dose: 5.0 mg/kg/injection, schedule: Q04DX003 (iv), vehicle: saline + alcohol) was 177 % of control and the T/C (dose: 5.4 mg/kg/injection, schedule: Q04DX003 (ip), vehicle: saline + alcohol) was 185 % of control. For the same compound, the T/C (dose: 6.48 mg/kg/injection, schedule: Q04DX002 (ip), vehicle: saline + alcohol) was 163 % of control and 169 % of control, the T/C (dose: 6.48 mg/kg/injection, schedule: Q04DX003 (ip), vehicle: saline + alcohol) was 219 % of control and the T/C (dose: 6.6 mg/kg/injection, schedule: Q01DX005 (ip), vehicle: saline + alcohol) was 305 % of control. For the same compound, the T/C (dose: 7.5 mg/kg/injection, schedule: Q01DX001 (iv), vehicle: saline + alcohol) was 164 % of control, the T/C (dose: 7.5 mg/kg/injection, schedule: Q04DX003 (ip), vehicle: saline) was 219 % of control and the T/C (dose: 8.0 mg/kg/injection, schedule: Q01DX001 (ip), vehicle: Klucel (hydroxypropylcellulose) (HPC)) was 171 % of control. For the same compound, the T/C (dose: 8.0 mg/kg/injection, schedule: Q01DX001 (ip), vehicle: suspension in saline) was 166 % of control, the T/C (dose: 8.0 mg/kg/injection, schedule: Q01DX001 (ip), vehicle: water) was 200 % of control and the T/C (dose: 8.0 mg/kg/injection, schedule: Q01DX005 (ip), vehicle: saline + alcohol) was 254 % of control. For the same compound, the T/C (dose: 8.0 mg/kg/injection, schedule: Q01DX009 (ip), vehicle: other) was 264 % of control and 370 % of control, the T/C (dose: 8.0 mg/kg/injection, schedule: Q01DX009 (ip), vehicle: saline with Tween-80) was 297 % of control and the T/C (dose: 9.0 mg/kg/injection, schedule: Q04DX003 (ip), vehicle: saline + alcohol) was 180 % of control. For the same compound, the T/C (dose: 10.0 mg/kg/injection, schedule: Q01DX005 (ip), vehicle: Klucel (hydroxypropylcellulose) (HPC)) was 123 % of control, the T/C (dose: 10.0 mg/kg/injection, schedule: Q01DX009 (ip), vehicle: Klucel (hydroxypropylcellulose) (HPC)) was 98 % of control and the T/C (dose: 10.0 mg/kg/injection, schedule: Q01DX009 (ip), vehicle: saline) was 240 % of control. The T/C (dose: 10.0 mg/kg/injection, schedule: Q04DX003 (ip), vehicle: saline + alcohol) was 320 % of control, the T/C (dose: 10.0 mg/kg/injection, schedule: Q04DX003 (iv), vehicle: saline + alcohol) was 265 % of control and the T/C (dose: 10.8 mg/kg/injection, schedule: Q04DX002 (ip), vehicle: saline + alcohol) was 200 % of control and 206 % of control. For the same compound, the T/C (dose: 10.8 mg/kg/injection, schedule: Q04DX003 (ip), vehicle: saline + alcohol) was 295 % of control, the T/C (dose: 12.5 mg/kg/injection, schedule: Q01DX005 (ip), vehicle: saline with Tween-80) was 275 % of control and 315 % of control and the T/C (dose: 15.0 mg/kg/injection, schedule: Q01DX001 (iv), vehicle: saline + alcohol) was 222 % of control. The T/C (dose: 15.0 mg/kg/injection, schedule: Q01DX009 (ip), vehicle: saline) was 300 % of control, the T/C (dose: 15.0 mg/kg/injection, schedule: Q04DX003 (ip), vehicle: saline + alcohol) was 336 % of control and the T/C (dose: 15.0 mg/kg/injection, schedule: Q04DX003 (ip), vehicle: saline) was 355 % of control. For the same compound, the T/C (dose: 16.0 mg/kg/injection, schedule: Q01DX001 (ip), vehicle: Klucel (hydroxypropylcellulose) (HPC)) was 210 % of control, the T/C (dose: 16.0 mg/kg/injection, schedule: Q01DX001 (ip), vehicle: saline with Tween-80) was 192 % of control and 240 % of control and the T/C (dose: 16.0 mg/kg/injection, schedule: Q01DX001 (ip), vehicle: suspension in saline) was 186 % of control. For the same compound, the T/C (dose: 16.0 mg/kg/injection, schedule: Q01DX001 (ip), vehicle: water) was 429 % of control, the T/C (dose: 16.0 mg/kg/injection, schedule: Q01DX001 (oral), vehicle: saline with Tween-80) was 163 % of control and the T/C (dose: 16.0 mg/kg/injection, schedule: Q01DX005 (ip), vehicle: saline + alcohol) was 409 % of control. The T/C (dose: 16.0 mg/kg/injection, schedule: Q01DX009 (ip), vehicle: other) was 111 % of control and 120 % of control, the T/C (dose: 16.0 mg/kg/injection, schedule: Q01DX009 (ip), vehicle: saline with Tween-80) was 118 % of control and the T/C (dose: 18.0 mg/kg/injection, schedule: Q04DX002 (ip), vehicle: saline + alcohol) was 250 % of control and 254 % of control. For the same compound, the T/C (dose: 18.0 mg/kg/injection, schedule: Q04DX003 (ip), vehicle: saline + alcohol) was 419 % of control, the T/C (dose: 20.0 mg/kg/injection, schedule: Q01DX001 (ip), vehicle: Klucel (hydroxypropylcellulose) (HPC)) was 241 % of control and the T/C (dose: 20.0 mg/kg/injection, schedule: Q04DX003 (ip), vehicle: saline + alcohol) was 165 % of control. The T/C (dose: 20.0 mg/kg/injection, schedule: Q04DX003 (iv), vehicle: saline + alcohol) was 291 % of control, the T/C (dose: 24.0 mg/kg/injection, schedule: Q01DX001 (ip), vehicle: saline) was 230 % of control and the T/C (dose: 25.0 mg/kg/injection, schedule: Q01DX005 (ip), vehicle: saline with Tween-80) was 184 % of control. The T/C (dose: 25.0 mg/kg/injection, schedule: Q04DX003 (ip), vehicle: saline + alcohol) was 233 % of control, the T/C (dose: 30.0 mg/kg/injection, schedule: Q01DX001 (iv), vehicle: saline + alcohol) was 352 % of control and the T/C (dose: 30.0 mg/kg/injection, schedule: Q01DX009 (ip), vehicle: saline) was 110 % of control. For the same compound, the T/C (dose: 30.0 mg/kg/injection, schedule: Q04DX002 (ip), vehicle: saline + alcohol) was 416 % of control and 441 % of control, the T/C (dose: 30.0 mg/kg/injection, schedule: Q04DX003 (ip), vehicle: saline + alcohol) was 166 % of control and the T/C (dose: 30.0 mg/kg/injection, schedule: Q04DX003 (ip), vehicle: saline) was 441 % of control. For the same compound, the T/C (dose: 31.25 mg/kg/injection, schedule: Q01DX001 (ip), vehicle: saline with Tween-80) was 275 % of control, the T/C (dose: 32.0 mg/kg/injection, schedule: Q01DX001 (ip), vehicle: Klucel (hydroxypropylcellulose) (HPC)) was 269 % of control and the T/C (dose: 32.0 mg/kg/injection, schedule: Q01DX001 (ip), vehicle: saline with Tween-80) was 272 % of control and 588 % of control. For the same compound, the T/C (dose: 32.0 mg/kg/injection, schedule: Q01DX001 (ip), vehicle: saline) was 606 % of control, the T/C (dose: 32.0 mg/kg/injection, schedule: Q01DX001 (ip), vehicle: suspension in saline) was 289 % of control and the T/C (dose: 32.0 mg/kg/injection, schedule: Q01DX001 (ip), vehicle: water) was 429 % of control. The T/C (dose: 32.0 mg/kg/injection, schedule: Q01DX001 (oral), vehicle: saline with Tween-80) was 227 % of control, the T/C (dose: 40.0 mg/kg/injection, schedule: Q01DX001 (ip), vehicle: Klucel (hydroxypropylcellulose) (HPC)) was 267 % of control and the T/C (dose: 62.5 mg/kg/injection, schedule: Q01DX001 (ip), vehicle: saline with Tween-80) was 275 % of control and 297 % of control. The T/C (dose: 64.0 mg/kg/injection, schedule: Q01DX001 (ip), vehicle: saline with Tween-80) was 107 % of control and 58 % of control, the T/C (dose: 64.0 mg/kg/injection, schedule: Q01DX001 (ip), vehicle: suspension in saline) was 161 % of control and the T/C (dose: 64.0 mg/kg/injection, schedule: Q01DX001 (oral), vehicle: saline with Tween-80) was 118 % of control. The T/C (dose: 80.0 mg/kg/injection, schedule: Q01DX001 (ip), vehicle: Klucel (hydroxypropylcellulose) (HPC)) was 267 % of control, the T/C (dose: 128.0 mg/kg/injection, schedule: Q01DX001 (ip), vehicle: Klucel (hydroxypropylcellulose) (HPC)) was 98 % of control and the T/C (dose: 128.0 mg/kg/injection, schedule: Q01DX001 (ip), vehicle: saline with Tween-80) was 98 % of control and 58 % of control. The T/C (dose: 128.0 mg/kg/injection, schedule: Q01DX001 (ip), vehicle: suspension in saline) was 107 % of control.
